biological target: mutant CFTR (Homo sapiens, UniProt P13569); assay: Fluorescence assay for CFTR activity (halide-sensitive YFP, HS-YFP); type: cell-based; conditions: CFBE41o- and FRT cells with stable expression of mutant CFTR
Description: Mutant CFTR activity was determined with the functional assay based on the halide-sensitive yellow fluorescent protein, HS—YFP (Galietta et al., FEBS Lett 499:220-224, 2001). CFBE41o- and FRT cells with stable expression of mutant CFTR and HS—YFP were plated on clear-bottom 96-well black microplates (Code 3603, Corning Life Sciences) at a density of 50,000 cells/well and kept at 37° C. in 5% CO2 for 24 hours.
For the corrector assay, cells were treated for further 24 hours with test compounds, vehicle (DMSO), or the positive control VX-809. After treatment, the culture medium was removed and cells in each well were stimulated for 30 min at 37° C. with 60 μL PBS (containing 137 mM NaCl, 2.7 mM KCl, 8.1 mM Na2HPO4, 1.5 mM KH2PO4, 1 mM CaCl2, and 0.5 mM MgCl2) plus forskolin (20 μM) and genistein (50 μM).
For determination of potentiator activity on F508del-CFTR, cells were incubated for 24 hours at 27° C. to allow trafficking of the mutant protein to plasma membrane. Cells were then stimulated with for 30 min with PBS containing forskolin (20 μM) plus the compound to be tested at the desired concentration. For determination of potentiator activity on G551D-CFTR or G1349D-CFTR, cells were directly stimulated with forskolin plus test compound without previous incubation at low temperature. At the time of assay, microplates carrying CFBE41o- or FRT cells were transferred to microplate readers (BMG Labtech) equipped with high-quality excitation (HQ500/20×: 500±10 nm) and emission (HQ535/30M: 535±15 nm) filters for YFP (Chroma Technology). The assay consisted of a continuous 14 s fluorescence reading with 2 s before and 12 s after injection of an iodide-containing solution (165 μL of a modified PBS containing I^− instead of Cl^−; final I^− concentration in the well: 100 mM). Data were normalized to the initial background-subtracted fluorescence. Enhanced CFTR activity, induced by correctors and/or potentiators, results in accelerated I^− influx that in turn causes faster HS—YFP quenching (Pedemonte et al., Mol Pharmacol 68:1736-1746, 2005; Pedemonte et al., J Clin Invest 115:2564-2571, […]). To determine fluorescence quenching rate associated with I^− influx, the final 10 s of data for each well were fitted with an exponential function to extrapolate initial slope (dF/dt).
EC50 obtained are illustrated in Table 1 wherein+: EC50>2 μM; ++: 1.0 μM <EC50<2 μM; +++: EC50<1 μM.

mutant CFTR, sequence (P13569 with tags, fused parts or gaps DEL508-508): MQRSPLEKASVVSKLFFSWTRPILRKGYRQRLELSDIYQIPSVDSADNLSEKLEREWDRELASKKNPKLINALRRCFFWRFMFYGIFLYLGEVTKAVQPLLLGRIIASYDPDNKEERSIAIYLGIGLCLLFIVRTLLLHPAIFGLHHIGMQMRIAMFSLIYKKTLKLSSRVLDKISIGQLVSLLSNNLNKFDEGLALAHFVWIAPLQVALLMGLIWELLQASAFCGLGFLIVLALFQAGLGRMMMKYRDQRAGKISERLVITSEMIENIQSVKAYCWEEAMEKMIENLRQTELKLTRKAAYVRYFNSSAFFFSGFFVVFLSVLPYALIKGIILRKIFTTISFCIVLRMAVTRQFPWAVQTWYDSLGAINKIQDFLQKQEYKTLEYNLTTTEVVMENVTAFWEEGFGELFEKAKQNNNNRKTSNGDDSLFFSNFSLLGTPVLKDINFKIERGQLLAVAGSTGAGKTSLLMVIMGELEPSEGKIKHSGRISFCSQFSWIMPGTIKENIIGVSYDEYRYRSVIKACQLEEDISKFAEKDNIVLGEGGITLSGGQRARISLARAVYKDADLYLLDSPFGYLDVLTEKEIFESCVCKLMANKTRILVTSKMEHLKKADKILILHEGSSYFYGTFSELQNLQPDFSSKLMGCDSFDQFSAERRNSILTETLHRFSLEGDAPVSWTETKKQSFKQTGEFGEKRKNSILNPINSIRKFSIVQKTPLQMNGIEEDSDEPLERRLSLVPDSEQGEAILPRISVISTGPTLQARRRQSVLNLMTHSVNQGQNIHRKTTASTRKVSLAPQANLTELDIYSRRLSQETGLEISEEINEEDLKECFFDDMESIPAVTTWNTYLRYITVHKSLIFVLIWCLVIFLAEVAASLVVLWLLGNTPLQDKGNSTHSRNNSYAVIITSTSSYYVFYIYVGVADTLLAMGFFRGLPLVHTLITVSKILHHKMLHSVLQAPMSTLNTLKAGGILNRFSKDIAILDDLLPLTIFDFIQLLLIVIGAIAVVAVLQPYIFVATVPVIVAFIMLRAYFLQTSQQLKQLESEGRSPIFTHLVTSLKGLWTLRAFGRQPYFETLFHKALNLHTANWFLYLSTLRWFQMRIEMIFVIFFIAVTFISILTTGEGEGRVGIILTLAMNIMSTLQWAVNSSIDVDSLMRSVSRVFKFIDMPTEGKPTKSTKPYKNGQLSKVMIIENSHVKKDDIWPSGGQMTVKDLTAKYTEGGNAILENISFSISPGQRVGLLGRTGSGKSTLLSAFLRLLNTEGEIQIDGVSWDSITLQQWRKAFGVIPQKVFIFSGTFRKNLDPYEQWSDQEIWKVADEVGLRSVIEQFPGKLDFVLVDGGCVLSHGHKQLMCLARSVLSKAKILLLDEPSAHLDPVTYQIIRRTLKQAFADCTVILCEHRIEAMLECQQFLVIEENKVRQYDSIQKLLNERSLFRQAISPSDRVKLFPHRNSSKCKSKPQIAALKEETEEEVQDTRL

Row | SMILES | EC50
1 | NC(=O)c1sc2ccccc2c1C1CN(S(=O)(=O)c2ccc(F)c(C(F)(F)F)c2)CCO1 (racemic) [compound 038, rac-3-[4-[4-fluoro-3-(trifluoromethyl)phenyl]sulfonylmorpholin-2-yl]benzothiophene-2-carboxamide] | > 2000 nM
2 | COCCS(=O)(=O)N1CCOC(c2c(C(N)=O)sc3ccccc23)C1 (racemic) [compound 059, rac-3-[4-(2-methoxyethylsulfonyl)morpholin-2-yl]benzothiophene-2-carboxamide] | > 2000 nM
3 | Cc1c(S(=O)(=O)N2CCOC(c3c(C(=O)N(C)C)sc4ccccc34)C2)cnn1C (stereo not shown) [compound 079, 3-{4-[(1,5-dimethyl-1H-pyrazol-4-yl)sulfonyl]-2-morpholinyl}-N,N-dimethyl-1-benzothiophene-2-carboxamide] | > 2000 nM
4 | NC(=O)c1sc2ccccc2c1C1CN(S(=O)(=O)c2ccc(S(F)(F)(F)(F)F)cc2)CCO1 (racemic) [compound 060, rac-3-[4-[4-(pentafluoro-lambda6-sulfanyl)phenyl]sulfonylmorpholin-2-yl]benzothiophene-2-carboxamide] | 1000 to 2000 nM
5 | Cc1nc(S(=O)(=O)N2CCOC(c3c(C(N)=O)sc4ccccc34)C2)cn1C (racemic) [compound 002, rac-3-[4-(1,2-dimethylimidazol-4-yl)sulfonylmorpholin-2-yl]benzothiophene-2-carboxamide] | > 2000 nM
6 | COc1cc(S(=O)(=O)N2CCOC(c3c(C(N)=O)sc4ccccc34)C2)ccc1C(F)(F)F (racemic) [compound 045, rac-3-[4-[3-methoxy-4-(trifluoromethyl)phenyl]sulfonylmorpholin-2-yl]benzothiophene-2-carboxamide] | 1000 to 2000 nM
7 | COC(=O)c1ccc(S(=O)(=O)N2CCOC(c3c(C(N)=O)sc4ccccc34)C2)cc1 (racemic) [compound 063, rac-methyl 4-[2-(2-carbamoylbenzothiophen-3-yl)morpholin-4-yl]sulfonylbenzoate] | > 2000 nM
8 | Cc1cc(S(=O)(=O)N2CCOC(c3c(C(=O)NC(C)C)sc4ccccc34)C2)ccc1F (racemic) [compound 031, rac-3-[4-(4-fluoro-3-methyl-phenyl)sulfonylmorpholin-2-yl]-N-isopropyl-benzothiophene-2-carboxamide] | > 2000 nM
9 | COc1ccc(S(=O)(=O)N2CCOC(c3c(C(N)=O)sc4ccccc34)C2)cc1 (racemic) [compound 010, rac-3-[4-(4-methoxyphenyl)sulfonylmorpholin-2-yl]benzothiophene-2-carboxamide] | 1000 to 2000 nM
10 | N#Cc1cccc(S(=O)(=O)N2CCOC(c3c(C(N)=O)sc4ccccc34)C2)c1 (racemic) [compound 062, rac-3-[4-(3-cyanophenyl)sulfonylmorpholin-2-yl]benzothiophene-2-carboxamide] | > 2000 nM
11 | NC(=O)c1sc2ccccc2c1C1CN(S(=O)(=O)c2ccc(Oc3ccncc3)cc2)CCO1 (racemic) [compound 024, rac-3-[4-[4-(4-pyridyloxy)phenyl]sulfonylmorpholin-2-yl]benzothiophene-2-carboxamide] | > 2000 nM
12 | CC(C)(C)c1ccc(S(=O)(=O)N2CCOC(c3c(C(N)=O)sc4ccccc34)C2)cc1 (racemic) [compound 036, rac-3-[4-(4-tert-butylphenyl)sulfonylmorpholin-2-yl]benzothiophene-2-carboxamide] | < 1000 nM
13 | NC(=O)c1sc2ccccc2c1C1CN(S(=O)(=O)C2CCOCC2)CCO1 (racemic) [compound 058, rac-3-[4-tetrahydropyran-4-ylsulfonylmorpholin-2-yl]benzothiophene-2-carboxamide] | > 2000 nM
14 | CCNC(=O)c1sc2ccccc2c1C1CN(S(=O)(=O)c2ccc(F)c(C)c2)CCO1 (racemic) [compound 030, rac-N-ethyl-3-[4-(4-fluoro-3-methyl-phenyl)sulfonylmorpholin-2-yl]benzothiophene-2-carboxamide] | > 2000 nM
15 | Cc1cc(C)c(S(=O)(=O)N2CCOC(c3c(C(N)=O)sc4ccccc34)C2)c(C)c1 (racemic) [compound 032, rac-3-[4-(2,4,6-trimethylphenyl)sulfonylmorpholin-2-yl]benzothiophene-2-carboxamide] | > 2000 nM
16 | NC(=O)c1sc2ccccc2c1C1CN(S(=O)(=O)c2cccc(OC(F)(F)F)c2)CCO1 (racemic) [compound 049, rac-3-[4-[3-(trifluoromethoxy)phenyl]sulfonylmorpholin-2-yl]benzothiophene-2-carboxamide] | > 2000 nM
17 | CNC(=O)c1sc2ccccc2c1C1CN(S(=O)(=O)c2ccc(F)c(C)c2)CCO1 (racemic) [compound 028, rac-3-[4-(4-fluoro-3-methyl-phenyl)sulfonylmorpholin-2-yl]-N-methyl-benzothiophene-2-carboxamide] | > 2000 nM

Second part, the compound after the results:

Row | EC50 | SMILES
18 | < 1000 nM | Cc1ccc(S(=O)(=O)N2CCOC(c3c(C(N)=O)sc4ccccc34)C2)cc1 (racemic) [compound 033, rac-3-[4-(p-tolylsulfonyl)morpholin-2-yl]benzothiophene-2-carboxamide]
19 | > 2000 nM | COc1ccc(S(=O)(=O)N2CCOC(c3c(C(N)=O)sc4ccccc34)C2)cc1F (racemic) [compound 053, rac-3-[4-(3-fluoro-4-methoxy-phenyl)sulfonylmorpholin-2-yl]benzothiophene-2-carboxamide]
20 | 1000 to 2000 nM | Cc1cccc(S(=O)(=O)N2CCOC(c3c(C(N)=O)sc4ccccc34)C2)c1 (racemic) [compound 012, rac-3-[4-(m-tolylsulfonyl)morpholin-2-yl]benzothiophene-2-carboxamide]
21 | > 2000 nM | NC(=O)c1sc2ccccc2c1C1CN(S(=O)(=O)c2ccc(F)cc2)CCO1 (racemic) [compound 022, rac-3-[4-(4-fluorophenyl)sulfonylmorpholin-2-yl]benzothiophene-2-carboxamide]
22 | 1000 to 2000 nM | NC(=O)c1sc2ccccc2c1C1CN(S(=O)(=O)c2ccc(Cl)cc2)CCO1 (racemic) [compound 040, rac-3-[4-(4-chlorophenyl)sulfonylmorpholin-2-yl]benzothiophene-2-carboxamide]
23 | > 2000 nM | COc1ccc(S(=O)(=O)N2CCOC(c3c(C(N)=O)sc4ccccc34)C2)cc1OC (racemic) [compound 054, rac-3-[4-(3,4-dimethoxyphenyl)sulfonylmorpholin-2-yl]benzothiophene-2-carboxamide]
24 | < 1000 nM | CN1CCOc2cc(S(=O)(=O)N3CCOC(c4c(C(N)=O)sc5ccccc45)C3)ccc21 (racemic) [compound 057, rac-3-[4-[(4-methyl-2,3-dihydro-1,4-benzoxazin-7-yl)sulfonyl]morpholin-2-yl]benzothiophene-2-carboxamide]
25 | > 2000 nM | NC(=O)c1sc2ccccc2c1C1CN(S(=O)(=O)c2cccc(Br)c2)CCO1 (racemic) [compound 009, rac-3-[4-(3-bromophenyl)sulfonylmorpholin-2-yl]benzothiophene-2-carboxamide]
26 | > 2000 nM | COc1ccc(S(=O)(=O)N2CCOC(c3c(C(N)=O)sc4ccccc34)C2)cc1C (racemic) [compound 023, rac-3-[4-(4-methoxy-3-methyl-phenyl)sulfonylmorpholin-2-yl]benzothiophene-2-carboxamide]
27 | < 1000 nM | Cc1ccc(S(=O)(=O)N2CCO[C@H](c3c(C(N)=O)sc4ccccc34)C2)cc1F (single isomer, unassigned) [compound 073]
28 | > 2000 nM | COc1cccc(S(=O)(=O)N2CCOC(c3c(C(N)=O)sc4ccccc34)C2)c1 (racemic) [compound 048, rac-3-[4-(3-methoxyphenyl)sulfonylmorpholin-2-yl]benzothiophene-2-carboxamide]
29 | > 2000 nM | COc1ccc(S(=O)(=O)N2CCOC(c3c(C(N)=O)sc4ccccc34)C2)cc1[N+](=O)[O-] (racemic) [compound 047, rac-3-[4-(4-methoxy-3-nitro-phenyl)sulfonylmorpholin-2-yl]benzothiophene-2-carboxamide]
30 | > 2000 nM | NC(=O)c1sc2ccccc2c1C1CN(S(=O)(=O)c2ccc(F)c(F)c2)CCO1 (racemic) [compound 021, rac-3-[4-(3,4-difluorophenyl)sulfonylmorpholin-2-yl]benzothiophene-2-carboxamide]
31 | 1000 to 2000 nM | NC(=O)c1sc2ccccc2c1C1CN(S(=O)(=O)c2ccc3c(c2)OCO3)CCO1 (racemic) [compound 017, rac-3-[4-(1,3-benzodioxol-5-ylsulfonyl)morpholin-2-yl]benzothiophene-2-carboxamide]

Source: patent US12391680B2, “Compounds and compositions for the treatment of cystic fibrosis” (FONDAZIONE ISTITUTO ITALIANO DI TECNOLOGIA, priority 2019, dated 2025)
